For the test, the target named is T1, Aromatase (Homo sapiens, UniProt P11511).
T1 sequence (P11511 whole entry): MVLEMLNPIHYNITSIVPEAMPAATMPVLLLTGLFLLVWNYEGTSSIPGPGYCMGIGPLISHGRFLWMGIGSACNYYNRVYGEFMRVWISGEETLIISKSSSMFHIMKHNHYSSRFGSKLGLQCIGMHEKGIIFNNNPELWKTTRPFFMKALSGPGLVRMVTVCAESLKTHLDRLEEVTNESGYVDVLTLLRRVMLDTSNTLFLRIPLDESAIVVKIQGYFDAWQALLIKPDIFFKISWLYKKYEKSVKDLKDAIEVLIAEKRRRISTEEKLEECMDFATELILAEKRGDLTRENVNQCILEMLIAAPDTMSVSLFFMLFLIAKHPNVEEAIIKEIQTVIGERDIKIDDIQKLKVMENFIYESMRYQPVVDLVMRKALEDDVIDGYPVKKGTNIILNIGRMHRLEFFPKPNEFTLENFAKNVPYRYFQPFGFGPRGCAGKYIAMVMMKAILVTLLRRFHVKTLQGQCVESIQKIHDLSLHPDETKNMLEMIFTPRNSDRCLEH

Structures are written as SMILES.

Description: Inhibition of human aromatase

In the case of `COCOc1ccc(C(=O)/C=C/c2ccc(OCOC)c(CC=C(C)C)c2)c(O)c1`, the IC50 is over 242 µM.
Consider `COc1ccc(C(=O)/C=C/c2ccc(OCC=C(C)C)cc2)c(O)c1`, for which the IC50 is over 271 µM.
